Assay results as given in patent US20250032623A1, “HETEROBIFUNCTIONAL COMPOUNDS AND THEIR USE IN TREATING DISEASE” (HALDA THERAPEUTICS OPCO, INC., priority 2021, published 2025).
Read-outs that look alike come from different tables or passages of the source.

Tests used:
HeLa cells = assay: Cellular growth inhibition assay (CellTiter-Glo), HeLa cells; assay type: cell-based; details: three days compound treatment, CellTiter-Glo 2.0, read-out: CTG HELA GI50
Method in brief: (§1)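 GI50 derived by four-parameter regression of luminescence (CellTiter-Glo 2.0) at Day 0 and Day 3, normalized to DMSO wells. Cells (HeLa, HEK293; 500/well, DMEM plus 10% FBS) were dosed with compound dilutions 24 h post-seeding and exposed for three days at 37 °C.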

HEK293 cells = assay: Cellular growth inhibition assay (CellTiter-Glo), HEK293 cells; assay type: cell-based; details: three days compound treatment, CellTiter-Glo 2.0, read-out: CTG HEK293 GI50
Method in brief: as §1

KRAS G12C = molecular target: T1, KRAS G12C (Homo sapiens, UniProt P01116, G12C); assay: KRAS G12C nucleotide exchange assay (SOS1 mediated, HTRF); assay type: biochemical; details: 1 hr pre-incubation at RT, read-out: IC50 (inhibition of KRas G12C)
T1 construct: Kras (aa 2-169), GST; purchased Reaction Biology Corporation (RBC)
Method: Exemplary compounds were tested for ability to inhibit KRas G12C.
KRAS target engagement (IC50 determination) was performed using a KRAS G12C nucleotide exchange assay (Reaction Biology Corporation). Specifically, compounds were tested against KRAS G12C in 10-point concentration IC50 mode with 3-fold serial dilution at a starting concentration of 10 μM. ARS1620 was used as a control. Compounds were pre-incubated with protein for 1 hr at RT. Parameters for the assay were:
In the method, Kras was mixed with a-GST Tb antibody (1.5× solution) and […] was delivered to reaction wells. Compounds were delivered using acoustic dispenser (Echo, Labcyte). Kras/aGST-Tb Ab/compound mixture was incubated for 1 hour at room temperature. A 3× solution of SOS1 and GTP* was prepared in reaction buffer. A […] aliquot of SOS1/GTP* solution was added to reaction well to initiate the exchange reaction. No—SOS1 reaction or max compound concentration was used as blank. IC50 determination was performed using a Sigmoidal dose response (variable slope) equation.

T1 sequence (P01116 2-169 isoform P01116-2 G12C): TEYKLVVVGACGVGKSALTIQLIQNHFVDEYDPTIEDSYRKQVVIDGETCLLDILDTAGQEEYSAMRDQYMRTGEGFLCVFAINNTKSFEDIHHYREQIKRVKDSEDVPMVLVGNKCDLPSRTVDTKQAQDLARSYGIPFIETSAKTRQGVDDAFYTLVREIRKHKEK

| SMILES | GI50 (HeLa cells; Homo sapiens, 72 h) [µM] | GI50 (HEK293 cells; Homo sapiens, 72 h) [µM] | IC50 (KRAS G12C) [µM] | GI50 (HeLa cells) [µM] | GI50 (HEK293 cells) [µM] |
| --- | --- | --- | --- | --- | --- |
| C=C(F)C(=O)N1CCN(c2nc(OC[C@@H]3CCCN3CCCOCCOCCn3cc(CNc4cc(N5CCCC[C@H]5CCO)nc5c(CC)cnn45)ccc3=O)nc3c2CCN(c2cccc4cccc(Cl)c24)C3)C[C@@H]1CC#N [Compound I-87, 2-[(2S)-4-[7-(8-chloro-1-naphthyl)-2-[[(2S)-1-[3-[2-[2-[5-[[[3-ethyl-5-[(2S)-2-(2-hydroxyethyl)-1-piperidyl]pyrazolo[1,5-a]pyrimidin-7-yl]amino]methyl]-2-oxo-1-pyridyl]ethoxy]ethoxy]propyl]pyrrolidin-2-yl]methoxy]-6,8-dihydro-5H-pyrido[3,4-d]pyrimidin-4-yl]-1-(2-fluoroprop-2-enoyl)piperazin-2-yl]acetonitrile] | 0.5 to 1.5 | 0.5 to 1.5 | < 0.1 |  |  |
| C=C(F)C(=O)N1CCN(c2nc(OC[C@@H]3CCCN3CCCOCCOCCOc3ccc(CNc4cc(N5CCCC[C@H]5CCO)nc5c(CC)cnn45)cn3)nc3c2CCN(c2cccc4cccc(Cl)c24)C3)C[C@@H]1CC#N [Compound I-88, 2-[(2S)-4-[7-(8-chloro-1-naphthyl)-2-[[(2S)-1-[3-[2-[2-S[[5-[[[3-ethyl-5-[(2S)-2-(2-hydroxyethyl)-1-piperidyl]pyrazolo[1,5-a]pyrimidin-7-yl]amino]methyl]-2-pyridyl]oxy]ethoxy]ethoxy]propyl]pyrrolidin-2-yl]methoxy]-6,8-dihydro-5H-pyrido[3,4-d]pyrimidin-4-yl]-1-(2-fluoroprop-2-enoyl)piperazin-2-yl]acetonitrile] | 0.5 to 1.5 | 0.5 to 1.5 | < 0.1 |  |  |
| CCc1cnn2c(NCc3ccc(OCCOCCOCCN(C)C/C=C/C(=O)N4CCN(c5nc(OC[C@@H]6CCCN6C)nc6c5CCN(c5cccc7cccc(Cl)c57)C6)C[C@@H]4CC#N)nc3)cc(N3CCCC[C@H]3CCO)nc12 [Compound I-89] | < 0.5 | 0.5 to 1.5 | < 0.1 |  |  |
| CCc1cnn2c(NCc3ccc(OCCN(C)C/C=C/C(=O)N4CCN(c5nc(OC[C@@H]6CCCN6C)nc6c5CCN(c5cccc7cccc(Cl)c57)C6)C[C@@H]4CC#N)nc3)cc(N3CCCC[C@H]3CCO)nc12 [Compound I-91, 2-[(2S)-4-[7-(8-chloro-1-naphthyl)-2-[[(2S)-1-methylpyrrolidin-2-yl]methoxy]-6,8-dihydro-5H-pyrido[3,4-d]pyrimidin-4-yl]-1-[(E)-4-[2-[[5-[[[3-ethyl-5-[(2S)-2-(2-hydroxyethyl)-1-piperidyl]pyrazolo [1,5-a]pyrimidin-7-yl]amino]methyl]-2-pyridyl]oxy]ethyl-methyl-amino]but-2-enoyl]piperazin-2-yl]acetonitrile] | < 0.5 | < 0.5 | < 0.1 |  |  |
| CCc1cnn2c(NCc3ccc(OCCOCCOCCOCCOCCOCCOCCOCCOCCN(C)C/C=C/C(=O)N4CCN(c5nc(OC[C@@H]6CCCN6C)nc6c5CCN(c5cccc7cccc(Cl)c57)C6)C[C@@H]4CC#N)nc3)cc(N3CCCC[C@H]3CCO)nc12 [Compound I-93, 2-((S)-4-(7-(8-chloronaphthalen-1-yl)-2-(((S)-1-methylpyrrolidin-2-yl)methoxy)-5,6,7,8-tetrahydropyrido[3,4d]pyrimidin4-yl)-1-((E)-1-((5-(((3-ethyl-5-((S)-2-(2-hydroxyethyl)piperidin-1-yl)pyrazolo[1,5-a]pyrimidin-7-yl)amino)methyl)pyridin-2-yl)oxy)-27-methyl-3,6,9,12,15,18,21,24-octaoxa-27-azahentriacont-29-en-31-oyl)piperazin-2-yl)acetonitrile] | < 0.5 | 1.5 to 5 | < 0.1 |  |  |
| CCc1cnn2c(NCc3ccc(OCCOCCOCCOCCOCCOCCOCCN(C)C/C=C/C(=O)N4CCN(c5nc(OC[C@@H]6CCCN6C)nc6c5CCN(c5cccc7cccc(Cl)c57)C6)C[C@@H]4CC#N)nc3)cc(N3CCCC[C@H]3CCO)nc12 [Compound I-94, 2-((S)-4-(7-(8-chloronaphthalen-1-yl)-2-(((S)-1-methylpyrrolidin-2-yl)methoxy) -5,6,7,8-tetrahydropyrido[3,4-d]pyrimidin-4-yl)-1-((E)-1-((5-(((3-ethyl-5-((S)-2-(2-hydroxyethyl)piperidin-1-yl)pyrazolo[1,5-a]pyrimidin-7-yl)amino)methyl)pyridin-2-yl)oxy)-21-methyl-3,6,9,12,15,18-hexaoxa-21-azapentacos-23-en-25-oyl)piperazin-2-yl)acetonitrile] | 0.5 to 1.5 | 1.5 to 5 | < 0.1 |  |  |
| CCc1cnn2c(NCc3ccc(OCCOCCOCCOCCOCCOCCOCCOC/C=C/C(=O)N4CCN(c5nc(OC[C@@H]6CCCN6C)nc6c5CCN(c5cccc7cccc(Cl)c57)C6)C[C@@H]4CC#N)nc3)cc(N3CCCC[C@H]3CCO)nc12 [Compound I-95] | > 5 | 1.5 to 5 | 1 to 5 |  |  |
| C=C(F)C(=O)N1CCN(c2nc(OC[C@@H]3CCCN3CCCOCCOCCOCCOCCN(C)C(=O)N3N=C(c4cc(F)ccc4F)S[C@@]3(CCCN)c3ccccc3)nc3c2CCN(c2cccc4cccc(Cl)c24)C3)C[C@@H]1CC#N [Compound I-98, 2-(3-aminopropyl)-N-[2-[2-[2-[2-[3-[(2S)-2-[[7-(8-chloro-1-naphthyl)-4-[(3S)-3-(cyanomethyl)-4-(2-fluoroprop-2-enoyl)piperazin-1-yl]-6,8-dihydro-5H-pyrido[3,4-d]pyrimidin-2-yl]oxymethyl]pyrrolidin-1-yl]propoxy]ethoxy]ethoxy]ethoxy]ethyl]-5-(2,5-difluorophenyl)-N-methyl-2-phenyl-1,3,4-thiadiazole-3-carboxamide] | 0.5 to 1.5 | 1.5 to 5 | < 0.1 |  |  |
| C=C(F)C(=O)N1CCN(c2nc(OC[C@@H]3CCCN3CCCOCCOCCN(C)C(=O)N3N=C(c4cc(F)ccc4F)SC3(CCCN)c3ccccc3)nc3c2CCN(c2cccc4cccc(Cl)c24)C3)C[C@@H]1CC#N (stereo partly drawn) [Compound I-99, 2-(3-aminopropyl)-N-[2-[2-[3-[(2S)-2-[[7-(8-chloro-1-naphthyl)-4-[(3S)-3-(cyanomethyl)-4-(2-fluoroprop-2-enoyl)piperazin-1-yl]-6,8-dihydro-5H-pyrido[3,4-d]pyrimidin-2-yl]oxymethyl]pyrrolidin-1-yl]propoxy]ethoxy]ethyl]-5-(2,5-difluorophenyl)-N-methyl-2-phenyl-1,3,4-thiadiazole-3-carboxamide] | 0.5 to 1.5 | 1.5 to 5 | < 0.1 |  |  |
| C=C(F)C(=O)N1CCN(c2nc(OC[C@@H]3CCCN3CCCOCCOCCOCCOCCOCCOCCN(C)C(=O)N3N=C(c4cc(F)ccc4F)S[C@@]3(CCCN)c3ccccc3)nc3c2CCN(c2cccc4cccc(Cl)c24)C3)C[C@@H]1CC#N [Compound I-100, (2S)-2-(3-aminopropyl)-N-[2-[22[2-[2-[2-[2-[3-[(2S)-2-[[7-(8-chloro-1-naphthyl)-4-[(3S)-3-(cyanomethyl)-4-(2-fluoroprop-2-enoyl)piperazin-1-yl]-6,8-dihydro-5H-pyrido[3,4-d]pyrimidin-2-yl]oxymethyl]pyrrolidin-1-yl]propoxy]ethoxy]ethoxy]ethoxy]ethoxy]ethoxy]ethyl]-5-(2,5-difluorophenyl)-N-methyl-2-phenyl-1,3,4-thiadiazole-3-carboxamide] | 1.5 to 5 | > 5 | < 0.1 |  |  |
| C=C(F)C(=O)N1CCN(c2nc(OC[C@@H]3CCCN3CCCOCCOCCOCCOCCOCCOCCOCCOCCN(C)C(=O)N3N=C(c4cc(F)ccc4F)S[C@@]3(CCCN)c3ccccc3)nc3c2CCN(c2cccc4cccc(Cl)c24)C3)C[C@@H]1CC#N [Compound I-101] |  |  | < 0.1 | 1.5 to 5 | 1.5 to 5 |
| C=C(F)C(=O)N1CCN(c2nc(OC[C@@H]3CCCN3CCCN3CCN(CCNC(=O)c4ccc(Nc5ncc6c(n5)N(C5CCCC5)[C@H](CC)C(=O)N6C)c(OC)c4)CC3)nc3c2CCN(c2cccc4cccc(Cl)c24)C3)C[C@@H]1CC#N [Compound I-106, N-[2-[4-[3-[(2S)-2-[[7-(8-chloro-1-naphthyl)-4-[(3S)-3-(cyanomethyl)-4-(2-fluoroprop-2-enoyl)piperazin-1-yl]-6,8-dihydro-5H-pyrido[3,4-d]pyrimidin-2-yl]oxymethyl]pyrrolidin-1-yl]propyl]piperazin-1-yl]ethyl]-4-[[(7R)-8-cyclopentyl-7-ethyl-5-methyl-6-oxo-7H-pteridin-2-yl]amino]-3-methoxy-benzamide] | 0.5 to 1.5 | 0.5 to 1.5 | < 0.1 |  |  |
